Measurements: patent US7915293B2, “Ubiquitin ligase inhibitors” (Rigel Pharmaceuticals, Inc., priority 2003, dated 2011)

Assays:
Design in all cases: key: “+” indicates that the compound exibits inhibitory activity; “−” indicates that low or no inhibitory activity was observed
A549 cells [1] = assay: Non-photographic proliferation analysis (Promega Cell titer Aqueous), A549; type: cell-based; conditions: 6 concentrations tested
Description: (§1) A549 (ATCC# CCL-185), HeLa (ATCC# CCL-2), HCT116 (ATCC# CCL-247), and H1299 (ATCC# CRL-5803) cells were maintained in T175 flasks following the ATCC recommended media and handling procedures. Flasks reaching approximately 70% confluency were trypsinized and resuspended in RPMI media (Cell-Gro catalog number 10-040-CM) modified to contain 5% FBS, 100 ug/mlPen/Strep (Cell-Gro catalog number 30-002-CL), and 0.3 mg/ml L-Glutamine (Cell-Gro catalog number 25-003-CL). A 20,000 cells/ml solution was made for plating. Cells were plated in black Packard 96 well plates by placing 100 μl per well (2,000 cells per well).
(§2) Compounds and additional media were added 24 hours after cell plating. A compound master plate was created with concentrations 500 times greater than the final concentration added to the cells. All compound testing was done in duplicate using 6.3 fold dilutions starting with 10 mM. All outside wells (and 4 internal wells) were DMSO controls. Taxol and at least one additional control were run on all plates. Three microliters of the compound master plate were added to deep well blocks containing 750 μl of RPMI media. One hundred microliters were transferred from the compound/media deep well blocks to the plated cells resulting in a 500 fold dilution of the compounds. Cells were grown at 37° C., 5% CO2 for 48 hours.
(§3) Some cell plates were treated with Promega Cell titer Aqueous 1 kit (promega—VWR catalog number G3580). In this case, 48 hours after the test compound were added, 100 μl of media were removed and 20 μl of cell titer reagent were added to all wells. Plates were incubated at 37° C. for 45 minutes prior to absorbance reads on the Wallac plate reader at 490 nm for 0.1 sec/well.

HeLa cells [2] = assay: Cell proliferation assay, photographic image analysis of proliferation, apoptosis and death (PAD assay), HeLa; type: cell-based; conditions: 6 concentrations tested
In short: (§4)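 Cells grown in RPMI with 5% FBS (2,000/well) and dosed 24 h after plating with 6.3-fold dilutions in duplicate (master plate 500× final, top 10 mM stock). After 48 h at 37 °C, cells formamide-fixed and DAPI-stained. Image analysis counted live, apoptotic and dead cells.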

[3] = target: E3 (His-APC11/APC2-"APC") (Homo sapiens, UniProt Q9NYG5+Q9UJX6); assay: Plate-based E3 ligase assay (APC FLAG), auto-ubiquitination; type: biochemical; conditions: for APC Flag (2 pt): 2 concentrations tested; for APC Flag 8 pt: 8 concentrations tested
In short: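 His-APC11/APC2 auto-ubiquitination was run in casein-blocked nickel plates for 1 h at room temperature, with E1 at 5 ng/well, UbcH5c at 20 ng/well and APC at 100 ng/well. Buffer was 62.5 mM Tris pH 7.6, 3 mM MgCl2, 1 mM DTT, 2.5 mM ATP and Flag-ubiquitin at 100 ng/well. Detection used anti-Flag/HRP chemiluminescence, and IC50 was typically from 6 or 8 concentrations versus a DMSO control.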

HeLa cells [4] = assay: Non-photographic proliferation analysis (Promega Cell titer Aqueous), HeLa; type: cell-based; conditions: 6 concentrations tested
Description: as §1, §2, §3

A549 cells [5] = assay: Cell proliferation assay, photographic image analysis of proliferation, apoptosis and death (PAD assay), A549; type: cell-based; conditions: 6 concentrations tested
In short: as §4

Sequence of E3 (His-APC11/APC2-"APC") (Q9NYG5 whole entry): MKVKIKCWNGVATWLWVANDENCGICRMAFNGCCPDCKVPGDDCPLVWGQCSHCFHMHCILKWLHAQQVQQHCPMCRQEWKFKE
Sequence of E3 (His-APC11/APC2-"APC") (Q9UJX6 whole entry): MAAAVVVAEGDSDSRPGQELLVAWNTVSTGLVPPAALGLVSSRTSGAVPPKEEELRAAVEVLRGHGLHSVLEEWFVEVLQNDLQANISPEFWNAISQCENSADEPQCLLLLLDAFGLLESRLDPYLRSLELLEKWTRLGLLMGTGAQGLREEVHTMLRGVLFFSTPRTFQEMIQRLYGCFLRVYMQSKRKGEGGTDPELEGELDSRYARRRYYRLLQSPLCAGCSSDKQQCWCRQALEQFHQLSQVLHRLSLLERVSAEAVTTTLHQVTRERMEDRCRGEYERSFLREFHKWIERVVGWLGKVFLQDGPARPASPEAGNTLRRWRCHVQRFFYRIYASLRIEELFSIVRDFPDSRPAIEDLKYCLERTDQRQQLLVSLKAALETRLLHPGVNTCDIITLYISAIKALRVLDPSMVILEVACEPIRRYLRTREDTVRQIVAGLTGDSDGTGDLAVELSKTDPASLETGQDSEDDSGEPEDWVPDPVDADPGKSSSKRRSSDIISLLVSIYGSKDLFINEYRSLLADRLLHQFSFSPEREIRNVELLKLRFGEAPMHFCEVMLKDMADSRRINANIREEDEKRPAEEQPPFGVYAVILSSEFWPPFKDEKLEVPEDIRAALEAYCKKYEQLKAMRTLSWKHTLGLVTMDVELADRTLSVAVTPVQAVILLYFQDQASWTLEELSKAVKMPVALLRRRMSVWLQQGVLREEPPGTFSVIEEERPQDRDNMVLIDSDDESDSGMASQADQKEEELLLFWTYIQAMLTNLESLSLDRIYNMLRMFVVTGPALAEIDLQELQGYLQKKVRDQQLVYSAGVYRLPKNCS

CS(=O)(=O)c1cccc(NS(=O)(=O)c2cc(Cl)c(Oc3ccc([N+](=O)[O-])cc3Cl)c(Cl)c2)c1 [Compound 173, 3,5-dichloro-4-(2-chloro-4-nitrophenoxy)-N-[3-(methylsulfonyl)phenyl]benzenesulfonamide]
Cell Titer-Aqueous, A549 6 pt (A549 cells [1]): −
PAD Assay, HELA 6 pt (HeLa cells [2]): −
APC Flag (2 pt) [3]: − (2 pt)
Cell Titer-Aqueous, HELA 6 pt (HeLa cells [4]): −
PAD Assay, A549 6 pt (A549 cells [5]): −

COc1ccc(NS(=O)(=O)c2cc(Cl)c(Oc3ccc([N+](=O)[O-])cc3Cl)c(Cl)c2)cc1 [Compound 208]
Cell Titer-Aqueous, A549 6 pt (A549 cells [1]): +
PAD Assay, HELA 6 pt (HeLa cells [2]): +
APC Flag 8 pt [3]: −
Cell Titer-Aqueous, HELA 6 pt (HeLa cells [4]): +
PAD Assay, A549 6 pt (A549 cells [5]): +

O=[N+]([O-])c1ccc(Oc2c(Cl)cc(S(=O)(=O)Nc3ccccc3I)cc2Cl)c(Cl)c1 [Compound 209]
Cell Titer-Aqueous, A549 6 pt (A549 cells [1]): +
PAD Assay, HELA 6 pt (HeLa cells [2]): +
APC Flag 8 pt [3]: +
Cell Titer-Aqueous, HELA 6 pt (HeLa cells [4]): +
PAD Assay, A549 6 pt (A549 cells [5]): +

COc1ccc(N(S(=O)(=O)c2cc(Cl)c(Oc3ccc([N+](=O)[O-])cc3Cl)c(Cl)c2)S(=O)(=O)c2cc(Cl)c(Oc3ccc([N+](=O)[O-])cc3Cl)c(Cl)c2)cc1Cl [Example 155, 3,5-dichloro-N-(3-chloro-4-methoxyphenyl)-4-(2-chloro-4-nitrophenoxy)-N-(1,3-dichloro-2-(2-chloro-4-nitrophenoxy)-5-sulfonylbenzene)benzenesulfonamide]
Cell Titer-Aqueous, A549 6 pt (A549 cells [1]): −
APC Flag 8 pt [3]: +
Cell Titer-Aqueous, HELA 6 pt (HeLa cells [4]): −
PAD Assay, A549 6 pt (A549 cells [5]): +

O=[N+]([O-])c1ccc(Oc2c(Cl)cc(S(=O)(=O)Nc3ccccc3Cl)cc2Cl)c(Cl)c1 [Example 156, 3,5-dichloro-4-(2-chloro-4-nitrophenoxy)-N-(2-chlorophenyl)benzenesulfonamide]
Cell Titer-Aqueous, A549 6 pt (A549 cells [1]): +
PAD Assay, HELA 6 pt (HeLa cells [2]): +
APC Flag 8 pt [3]: +
Cell Titer-Aqueous, HELA 6 pt (HeLa cells [4]): +

O=[N+]([O-])c1ccc(Oc2c(Cl)cc(S(=O)(=O)Nc3cccc(Br)c3)cc2Cl)c(Cl)c1 [Example 159, N-(3-bromophenyl)-3,5-dichloro-4-(2-chloro-4-nitrophenoxy)benzenesulfonamide]
Cell Titer-Aqueous, A549 6 pt (A549 cells [1]): +
PAD Assay, HELA 6 pt (HeLa cells [2]): +
APC Flag 8 pt [3]: +
Cell Titer-Aqueous, HELA 6 pt (HeLa cells [4]): +
PAD Assay, A549 6 pt (A549 cells [5]): +

Cc1cccc(C(C)C)c1NS(=O)(=O)c1cc(Cl)c(Oc2ccc([N+](=O)[O-])cc2Cl)c(Cl)c1 [Example 160, 3,5-dichloro-4-(2-chloro-4-nitrophenoxy)-N-(2-isopropyl-6-methylphenyl)benzene-sulfonamide]
Cell Titer-Aqueous, A549 6 pt (A549 cells [1]): +
PAD Assay, HELA 6 pt (HeLa cells [2]): +
APC Flag 8 pt [3]: +
Cell Titer-Aqueous, HELA 6 pt (HeLa cells [4]): +
PAD Assay, A549 6 pt (A549 cells [5]): +

O=[N+]([O-])c1ccc(Oc2c(Cl)cc(S(=O)(=O)Nc3ccsc3)cc2Cl)c(Cl)c1 [Example 165, 3,5-dichloro-4-(2-chloro-4-nitrophenoxy)-N-3-thienylbenzenesulfonamide]
Cell Titer-Aqueous, A549 6 pt (A549 cells [1]): +
PAD Assay, HELA 6 pt (HeLa cells [2]): +
APC Flag 8 pt [3]: +
Cell Titer-Aqueous, HELA 6 pt (HeLa cells [4]): +
PAD Assay, A549 6 pt (A549 cells [5]): +

O=[N+]([O-])c1ccc(Oc2c(Cl)cc(S(=O)(=O)Nc3cccc4cc[nH]c34)cc2Cl)c(Cl)c1 [Example 168, 3,5-dichloro-4-(2-chloro-4-nitrophenoxy)-N-1H-indol-7-ylbenzenesulfonamide]
Cell Titer-Aqueous, A549 6 pt (A549 cells [1]): +
PAD Assay, HELA 6 pt (HeLa cells [2]): +
APC Flag 8 pt [3]: +
Cell Titer-Aqueous, HELA 6 pt (HeLa cells [4]): +
PAD Assay, A549 6 pt (A549 cells [5]): +

O=[N+]([O-])c1ccc(Oc2c(Cl)cc(S(=O)(=O)Nc3ccc4[nH]ccc4c3)cc2Cl)c(Cl)c1 [Example 174, 3,5-dichloro-4-(2-chloro-4-nitrophenoxy)-N-1H-indol-5-ylbenzenesulfonamide]
Cell Titer-Aqueous, A549 6 pt (A549 cells [1]): +
PAD Assay, HELA 6 pt (HeLa cells [2]): +
APC Flag 8 pt [3]: +
Cell Titer-Aqueous, HELA 6 pt (HeLa cells [4]): +
PAD Assay, A549 6 pt (A549 cells [5]): +

N#Cc1ccc(NS(=O)(=O)c2cc(Cl)c(Oc3ccc([N+](=O)[O-])cc3Cl)c(Cl)c2)cc1 [Example 200, 3,5-dichloro-4-(2-chloro-4-nitrophenoxy)-N-(4-cyanophenyl)benzenesulfonamide]
Cell Titer-Aqueous, A549 6 pt (A549 cells [1]): +
PAD Assay, HELA 6 pt (HeLa cells [2]): +
APC Flag 8 pt [3]: +
Cell Titer-Aqueous, HELA 6 pt (HeLa cells [4]): +
PAD Assay, A549 6 pt (A549 cells [5]): +

COc1ccc(NS(=O)(=O)c2cc(Cl)c(Oc3ccc([N+](=O)[O-])cc3Cl)c(Cl)c2)cc1Cl [Example 201, 3,5-dichloro-N-(3-chloro-4-methoxyphenyl)-4-(2-chloro-4-nitrophenoxy)benzene-sulfonamide]
Cell Titer-Aqueous, A549 6 pt (A549 cells [1]): +
PAD Assay, HELA 6 pt (HeLa cells [2]): +
APC Flag 8 pt [3]: +
Cell Titer-Aqueous, HELA 6 pt (HeLa cells [4]): +
PAD Assay, A549 6 pt (A549 cells [5]): +

O=[N+]([O-])c1ccc(Oc2c(Cl)cc(S(=O)(=O)Nc3cccnc3)cc2Cl)c(Cl)c1 [Example 205, 3,5-dichloro-4-(2-chloro-4-nitrophenoxy)-N-pyridin-3-ylbenzenesulfonamide]
Cell Titer-Aqueous, A549 6 pt (A549 cells [1]): −
APC Flag 8 pt [3]: −
Cell Titer-Aqueous, HELA 6 pt (HeLa cells [4]): −

COc1ccc(NS(=O)(=O)c2cc(Cl)c(Oc3ccc([N+](=O)[O-])cc3Cl)c(Cl)c2)c(OC)n1 [Example 206, 3,5-dichloro-4-(2-chloro-4-nitrophenoxy)-N-(2,6-dimethoxypyridin-3-yl)benzene-sulfonamide]
Cell Titer-Aqueous, A549 6 pt (A549 cells [1]): +
APC Flag 8 pt [3]: −
Cell Titer-Aqueous, HELA 6 pt (HeLa cells [4]): +

O=[N+]([O-])c1ccc(Oc2c(Cl)cc(S(=O)(=O)Nc3cccnc3Cl)cc2Cl)c(Cl)c1 [Example 207, 3,5-dichloro-4-(2-chloro-4-nitrophenoxy)-N-(2-chloropyridin-3-yl)benzenesulfonamide]
Cell Titer-Aqueous, A549 6 pt (A549 cells [1]): +
APC Flag 8 pt [3]: +
Cell Titer-Aqueous, HELA 6 pt (HeLa cells [4]): +

CC1(C)Oc2ccc(NS(=O)(=O)c3cc(Cl)c(Oc4ccc([N+](=O)[O-])cc4Cl)c(Cl)c3)cc2NC1=O [Example 213, 3,5-dichloro-4-(2-chloro-4-nitrophenoxy)-N-(2,2-dimethyl-3-oxo-3,4-dihydro-2H-1,4-benzoxazin-6-yl)benzenesulfonamide]
Cell Titer-Aqueous, A549 6 pt (A549 cells [1]): +
APC Flag 8 pt [3]: +
Cell Titer-Aqueous, HELA 6 pt (HeLa cells [4]): +

O=[N+]([O-])c1ccc(Oc2c(Cl)cc(S(=O)(=O)Nc3ncccn3)cc2Cl)c(Cl)c1 [Example 222, 3,5-dichloro-4-(2-chloro-4-nitrophenoxy)-N-pyrimidin-2-ylbenzenesulfonamide]
Cell Titer-Aqueous, A549 6 pt (A549 cells [1]): −
APC Flag 8 pt [3]: +
Cell Titer-Aqueous, HELA 6 pt (HeLa cells [4]): −

O=[N+]([O-])c1ccc(Oc2c(Cl)cc(S(=O)(=O)NC3Cc4ccccc4C3)cc2Cl)c(Cl)c1 [Example 224, 3,5-dichloro-4-(2-chloro-4-nitrophenoxy)-N-(2,3-dihydro-1H-inden-2-yl)benzene-sulfonamide]
Cell Titer-Aqueous, A549 6 pt (A549 cells [1]): +
APC Flag (2 pt) [3]: − (2 pt)
Cell Titer-Aqueous, HELA 6 pt (HeLa cells [4]): +
